Measured values reported in patent EP2067861A1, “Animals of the rattus genus wherein msh6 expression is functionally decreased and methods for the generation of specific mutants therefrom” (Koninklijke Nederlandse Akademie van Wetenschappen, priority 2007, dated 2009).

Tested on: Male MSH6 knockout rats (Msh6^1Hubr)
Experiment: ENU-induced germ line mutation discovery by resequencing 768 amplicons in F1 progeny
Assay type: in vivo, rat
Description: All experiments were approved by the Animal Care Committee of the Royal Dutch Academy of Science according to the Dutch legal ethical guidelines. Experiments were designed to minimize the number of required animals and their suffering. Male MSH6 knockout rats (Msh6^1Hubr) of 12 weeks of age were given three weekly intraperitoneal injections of 25, 30 and 35 mg/kg bodyweight ENU. Preparation of ENU (Isopac; Sigma) was done as decribed (for detailed description, see (Smits et al. (2006) Pharmacogenet Genomics 16, 159-69) After the treatment the injected males were monitored for fertility by breeding with one or two females. Pups from these early matings were counted, but not analyzed. Ten weeks after the last injection, fertile males of the highest-dosed fertile group were kept on a weekly breeding scheme with two females to produce F1 progeny for mutational analysis. Animals were housed under standard conditions in groups of two to three per cage per gender under controlled experimental conditions (12-h light/dark cycle, 21±1°C, 60% relative humidity, food and water ad libitum).
At two weeks of age F1 progeny were uniquely tagged by fetching ear clips. Ear clips were lysed for at least 2 hours at 55°C and 1400 rpm in a Thermomixer comfort (Eppendorf) in 400 µl lysisbuffer (100 mM Tris (pH 8.5), 200 mM NaCl, 0.2% SDS, 5 mM EDTA and 100 µg/ml of freshly added Proteinase K) followed by phenol/chloroform (1:1, vol/vol) extraction. The DNA was precipitated by adding 300 µl isopropanol, mixing and centrifuging for 20 min, at 21,000 g at 4°C. The supernatant was discarded and pellets were washed with 70% ethanol and dissolved in 500 µl MQ.
768 pre-selected amplicons were amplified using a nested PCR setup. The first PCR was carried out using a touchdown thermocycling program (94°C for 60 sec; 15 cycles of 92°C for 30 sec, 65°C for 30 sec with a decrement of 0.6°C per cycle, 72°C for 60 sec; followed by 30 cycles of 92°C for 30 sec, 58°C for 30 sec and 72°C for 60 sec; 72°C for 180 sec; GeneAmp9700, Applied Biosystems). The PCR reaction contained ±100 ng DNA, 0.2 µM of each forward primer and 0.2 µM of each reverse primer, 400 µM of each dNTP, 25 mM tricine, 7.0% glycerol (w/v), 1.6% dimethyl sulfoxide (DMSO) (w/v), 2 mM MgCl2, 85 mM ammonium acetate pH 8.7 and 0.2 U Taq Polymerase in a total volume of 5 µl. After thermocycling, the PCR1 reactions were diluted with 20 µl H2O and 1 µl was used as template for the second round of PCR. The second PCR was done using a standard thermocycling program (94°C for 60 sec; 35 cycles of 92°C for 20 sec, 58°C for 30 sec and 72°C for 60 sec; 72°C for 180 sec; GeneAmp9700, Applied Biosystems). PCR2 mixes contained 1 µl diluted PCR1 template, 0.1 µM forward primer, 0.1 µM reverse primer, 100 µM of each dNTP, 25 mM tricine, 7.0% glycerol (w/v), 1.6% DMSO (w/v), 2 mM MgCl2, 85 mM ammonium acetate pH 8.7 and 0.1 U Taq Polymerase in a total volume of 5 µl. Several samples of each plate were tested on a 1% agarose gel containing ethidium bromide for the presence of the proper PCR fragment. PCR2 products were diluted with 20 µl H2O and 1 µl was directly used as a template for the sequencing reactions. Sequencing reactions contained 0.1 µl BigDye (v3.1; Applied Biosystems), 1.9 µl BigDye Dilution Buffer (Applied Biosystems) and 0.4 µM of the forward primers used for the PCR2 reaction in a total volume of 5 µl. The thermocycling program that was recommended by the manufacturer was used for the sequence reactions (40 cycles of 94°C for 10 sec, 50°C for 5 sec and 60°C for 120 sec). Sequencing products were purified by ethanol precipitation in the presence of 40 mM sodium-acetate and analyzed on a 96-capillary 3730XL DNA analyzer (Applied Biosystems), using the standard RapidSeq protocol on 36 cm array. Sequences were analyzed for the presence of heterozygous mutations using PolyPhred (Nickerson et al. (1997) Nucleic Acids Res. 25, 2745-51) and in-house developed software. […]

[1] = 3 x 30 mg/kg bodyweight ENU, animals born 14 - 16 weeks after the ENU injection
[2] = 94 coding mutations, all MSH6^-/- dose groups
[3] = ENU mutation spectrum, MSH6 deficient compared to proficient background
[4] = MSH6^-/- 3 x 25 mg/kg ENU, 16 pups, 3.57 x 10^6 bases screened
[5] = MSH6^-/- 3 x 30 mg/kg ENU, 291 pups, 69.66 x 10^6 bases screened
[6] = MSH6^-/- 3 x 35 mg/kg ENU, 3 pups, 0.72 x 106 bases screened
[7] = MSH6^-/- Total of the three dose groups

CCN(N=O)C(N)=O [ENU, N-ethyl-N-nitrosourea]
Mutation Frequencies (3 x 30 mg/kg bodyweight ENU, F1 born 14 - 16 weeks after last injection): 1.88 x 10^-6
# Mutations (3 x 30 mg/kg bodyweight ENU, F1 born 14 - 16 weeks after last injection, 59 pups, 14.92 x 10^6 bases screened): 28
Mutation Frequencies (3 x 30 mg/kg bodyweight ENU, F1 born 17 - 19 weeks after last injection): 1.65 x 10^-6
# Mutations (3 x 30 mg/kg bodyweight ENU, F1 born 17 - 19 weeks after last injection, 62 pups, 13.30 x 106 bases screened): 22
Mutation Frequencies (3 x 30 mg/kg bodyweight ENU, F1 born 20 - 22 weeks after last injection): 1.24 x 10^-6
# Mutations (3 x 30 mg/kg bodyweight ENU, F1 born 20 - 22 weeks after last injection, 67 pups, 15.34 x 10^6 bases screened): 19
Mutation Frequencies (3 x 30 mg/kg bodyweight ENU, F1 born 23 - 25 weeks after last injection): 9.92 x 10^-7
# Mutations (3 x 30 mg/kg bodyweight ENU, F1 born 23 - 25 weeks after last injection, 64 pups, 16.14 x 10^6 bases screened): 16
mutation frequency (3 x 30 mg/kg bodyweight ENU, F1 born 23 weeks after the last injection or later): approximately 1.0 x 10^-6 per base pair
Mutation Frequencies (3 x 30 mg/kg bodyweight ENU, F1 born 26 - 29 weeks after last injection): 1.10 x 10^-6
# Mutations (3 x 30 mg/kg bodyweight ENU, F1 born 26 - 29 weeks after last injection, 39 pups, 9.97 x 10^6 bases screened): 11
mutation frequency [1]: 1.88 x 10^-6 per base pair
mutation rate (1 mutation every ... base pairs) [1]: 5.3 x 10^5 base pairs
mutation frequency (3 x 30 mg/kg bodyweight ENU, animals born 17 - 19 weeks after the last ENU injection): 1.65 x 10^-6 per base pair
mutation frequency (3 x 30 mg/kg bodyweight ENU, animals born 20 - 22 weeks after the last ENU injection): 1.24 x 10^-6 per base pair
missense mutations, share of coding mutations [2]: ~74%
nonsense mutations, share of coding mutations [2]: ~4%
silent mutations, share of coding mutations [2]: ~21%
percentage of A:T to G:C transitions [3]: significantly decreased
percentage of G:C to A:T transitions [3]: significantly increased
percentages of transversions [3]: No significant change
# Mutations - non-coding (MSH6^-/- 3 x 25 mg/kg ENU): 0
# Mutations - silent (MSH6^-/- 3 x 25 mg/kg ENU): 1
# Mutations - missense [4]: 4
# Mutations - nonsense [4]: 0
# Mutations - total [4]: 5
Mutation Frequencies (MSH6^-/- 3 x 25 mg/kg ENU, F1 progeny): 1.40 x 10^-6
# Mutations - non-coding (MSH6^-/- 3 x 30 mg/kg ENU): 8
# Mutations - silent (MSH6^-/- 3 x 30 mg/kg ENU): 19
# Mutations - missense [5]: 65
# Mutations - nonsense [5]: 4
# Mutations - total [5]: 96
Mutation Frequencies (MSH6^-/- 3 x 30 mg/kg ENU, F1 progeny): 1.38 x 10^-6
# Mutations - non-coding (MSH6^-/- 3 x 35 mg/kg ENU): 0
# Mutations - silent (MSH6^-/- 3 x 35 mg/kg ENU): 0
# Mutations - missense [6]: 1
# Mutations - nonsense [6]: 0
Mutation Frequencies (MSH6^-/- 3 x 35 mg/kg ENU, F1 progeny): 1.38 x 10^-6
# Mutations - missense [7]: 70
# Mutations - non-coding [7]: 8
# Mutations - silent [7]: 20
# Mutations - total (MSH6^-/- Total of the three dose groups, 310 pups, 73,95 x 10^6 bases screened): 102
increase of mutation rate compared to control animals (MSH6 deficient 3 x 30 mg/kg ENU versus control 3 x 40 mg/kg): 1.7 x
mutation rate (1 mutation every ... base pairs) (MSH6 deficient, 3 x 30 mg/kg bodyweight ENU, 291 F1 progeny, almost 70 Mb): 7.26 x 10^5 base pairs
mutations in coding regions (of the 102 mutations found, all MSH6^-/- dose groups): 94
